Source: US8901137B2, “Methods of treating cancer using pyridopyrimidinone inhibitors of PI3K and mTOR in combination with autophagy inhibitors” (Exelixis, Inc., priority 2010, dated 2014)

Legend:
pancreatic cancer cells = assay: Effect of autophagy inhibitors on autophagy and apoptosis of treated cells; type: cell-based
From the text: We therefore tested whether inhibitors of autophagy or apoptosis could shift the cellular response from autophagy to apoptosis or vice versa.

PDAC cell lines = assay: Apoptosis induction in PDAC cell lines (PI/Annexin V, FACS); type: cell-based; details: representative subset of PDAC cell lines, dual staining with PI and Annexin V, FIG. 1
MiaPaCa2 cells [1] = assay: Induction of apoptosis in MiaPaCa2 cells by FACS analysis; type: cell-based; details: 72 hours, FIG. 2A
MiaPaCa2 cells [2] = assay: Induction of autophagy by acridine orange staining and FACS analysis; type: cell-based; details: FIG. 2B
From the text: Occurrence of cytoplasmic vacuoles in tumor cells treated with dual-targeted inhibitors are consistently observed. […] A variety of assays, including LC3-I to LC3-II conversion, acridin orange supravital staining, and MDC staining indicate whether treatment of pancreatic cancer cells with a compound of the invention will induce autophagy.

[3] = system: Xenograft tumors derived from BxPC3 cells; assay: BxPC3 xenograft tumor growth in nude mice (Biological Example 8A); type: in vivo; details: BxPC3 subcutaneous flank tumors in nude mice, once daily dosing, 30 days; FIG. 4A
Description: Whether autophagy inhibition increased the activity of Compound A in vivo was explored. Xenograft tumors derived from BxPC3 cells were grown subcutaneously as flank tumors in nude mice to a size of 150 mm^3. Treatment with Compound A, alone or in combination with choloroquine, was administered for 30 days. Treatment with Compound A along and Compound A in combination with chloroquine was carried out by once daily dosing as indicated. Tumor volume was measured regularly. Tumors were harvested from euthanized mice for protein expression analyses.

BxPC-3 cells = assay: BxPC-3 xenograft tumor growth in Nu/Nu mice (Biological Example 8B); type: in vivo; details: BxPC-3 s.c. in Nu/Nu mice; Compound A 30 mg/kg oral gavage, CQ 50 mg/kg i.p., 5 times/week, 28 days; FIG. 4B
Description: Female 7-9 weeks old Nu/Nu mice (Harlan, FoxN 1/nude) were inoculated s.c. with 10^7 BxPC-3 cells. Mice were monitored according to the protocol approved by the University of California, San Francisco Institutional Animal Care and Use Committee. When tumors reached about 100 mm^3, mice were randomly assigned to one of […] treatment groups: vehicle control, Compound A 30 mg/kg, Chloroquine (CQ) 50 mg/kg, Compound A+CQ. Compound A was solubilized in water/10 mM HCl, Compound B was dissolved in water, both drugs were administered by oral gavage once a day 5 times/week. CQ was dissolved in saline and injected i.p daily, 5 times/week. Each treatment regimen was tested in cohorts of eight mice and the dosing was continued for 28 days. Tumor sizes were measured twice weekly in two dimensions using a caliper, tumor size (mm^3) was calculated as (length×width^2)/2. Animals were monitored for toxicity by measuring body weight twice weekly and monitoring overall activity.
Dbata are expressed as means+/−standard deviation. Statistical analysis was performed by using Student's t-test (two-tailed). P values of <0.05 were considered significant.

SMILES	autophagy (pancreatic cancer cells; autophagy inhibitor added to cells treated with dual-targeted inhibitor, data not shown)	fraction of cells undergoing apoptosis (pancreatic cancer cells; autophagy inhibitor added, FIG. 3: Compound A with or without CQ 5 mM, 72 hours, PI/Annexin-V FACS)	apoptosis induction (PDAC cell lines)	induction of apoptosis (MiaPaCa2 cells [1])	induction of autophagy (MiaPaCa2 cells [2])	tumor growth (tumor volume) [3]	tumor growth (tumor size) (BxPC-3 cells)
Cn1cnc(N)c2ncnc1-2 [Example 3-MA, 3-methyladenine]	inhibited autophagy	significantly increased					
CCn1c(=O)c(-c2ccn[nH]2)cc2c(C)nc(N)nc21 [Compound A]			apoptosis induction	induction of apoptosis	induction of autophagy	no clear growth-inhibitory effect	no clear growth-inhibitory effect
